Measured values published in PubChem BioAssay AID248 (DTP/NCI, 2004).
Toxic doses and inconclusive results are not listed. Rule as the data show it: active = T/C of 150% or more; inactive = T/C below 125%.

System: L1210 leukemia ip in BDF1 mice, survival T/C
Assay: NCI In Vivo Anticancer Drug Screen. Data for tumor model L1210 Leukemia (intraperitoneal) in B6D2F1 (BDF1) mice
Conditions: endpoint: mean survival time, higher = longer survival
Procedure, shortened: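 Transplantable tumor model; survival measured in treated vs vehicle control mice. Value = treated/control.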

[1] = dose: 100.0 mg/kg/injection, schedule: Q01DX009 (ip), vehicle: Klucel (hydroxypropylcellulose) (HPC)
[2] = dose: 100.0 mg/kg/injection, schedule: Q04DX003 (ip), vehicle: Klucel (hydroxypropylcellulose) (HPC)
[3] = dose: 200.0 mg/kg/injection, schedule: Q01DX009 (ip), vehicle: Klucel (hydroxypropylcellulose) (HPC)
[4] = dose: 200.0 mg/kg/injection, schedule: Q04DX003 (ip), vehicle: Klucel (hydroxypropylcellulose) (HPC)
[5] = dose: 400.0 mg/kg/injection, schedule: Q01DX009 (ip), vehicle: Klucel (hydroxypropylcellulose) (HPC)
[6] = dose: 400.0 mg/kg/injection, schedule: Q04DX003 (ip), vehicle: Klucel (hydroxypropylcellulose) (HPC)
[7] = dose: 100.0 mg/kg/injection, schedule: Q04DX002 (ip), vehicle: saline with Tween-80
[8] = dose: 200.0 mg/kg/injection, schedule: Q04DX002 (ip), vehicle: saline with Tween-80
[9] = dose: 400.0 mg/kg/injection, schedule: Q04DX002 (ip), vehicle: saline with Tween-80
[10] = dose: 100.0 mg/kg/injection, schedule: Q04DX002 (ip), vehicle: Klucel (hydroxypropylcellulose) (HPC)
[11] = dose: 200.0 mg/kg/injection, schedule: Q04DX002 (ip), vehicle: Klucel (hydroxypropylcellulose) (HPC)
[12] = dose: 75.0 mg/kg/injection, schedule: Q01DX001 (ip), vehicle: saline
[13] = dose: 150.0 mg/kg/injection, schedule: Q01DX001 (ip), vehicle: saline
[14] = dose: 300.0 mg/kg/injection, schedule: Q01DX001 (ip), vehicle: saline
[15] = dose: 100.0 mg/kg/injection, schedule: Q04DX003 (ip), vehicle: saline
[16] = dose: 200.0 mg/kg/injection, schedule: Q04DX003 (ip), vehicle: saline
[17] = dose: 400.0 mg/kg/injection, schedule: Q04DX003 (ip), vehicle: saline

Measured: T/C

CSc1nnc([N+](=O)[O-])s1
inactive: dose: 6.25 mg/kg/injection, schedule: Q01DX009 (ip), vehicle: Klucel (hydroxypropylcellulose) (HPC) 94 % of control | dose: 12.5 mg/kg/injection, schedule: Q01DX009 (ip), vehicle: Klucel (hydroxypropylcellulose) (HPC) 90 % of control

ClCC1COC(Cc2ccccc2)O1 (stereo not given)
inactive: dose: 222.0 mg/kg/injection, schedule: Q01DX Z (ip), vehicle: saline 97 % of control | dose: 333.0 mg/kg/injection, schedule: Q01DX Z (ip), vehicle: saline 97 % of control | dose: 500.0 mg/kg/injection, schedule: Q01DX Z (ip), vehicle: saline 103 % of control

COc1ccccc1NC(=O)Oc1c(C(C)C)cccc1C(C)C
inactive: [1] 94 % of control | [2] 95 % of control | [3] 97 % of control | [4] 102 % of control | [5] 106 % of control | [6] 94 % of control

CC(C)(S)CNCCSC(=O)c1ccccc1
inactive: dose: 100.0 mg/kg/injection, schedule: Q04DX003 (ip), vehicle: saline with Tween-80 102 % of control | dose: 200.0 mg/kg/injection, schedule: Q04DX003 (ip), vehicle: saline with Tween-80 100 % of control | dose: 400.0 mg/kg/injection, schedule: Q04DX003 (ip), vehicle: saline with Tween-80 92 % of control

Brc1ccc2c(c1)oc1ccccc12
inactive: [1] 102 % of control | [2] 105 % of control | [3] 97 % of control | [4] 107 % of control | [5] 100 % of control | [6] 91 % of control

CC(NNC(c1ccccc1)(c1ccccc1)c1ccccc1)c1ccccc1I (stereo not given)
inactive: [7] 93 % of control | [8] 95 % of control | [9] 97 % of control

NC(=S)N/N=C/c1c(Cl)n(C(=O)c2ccccc2Cl)c2ccccc12
inactive: dose: 50.0 mg/kg/injection, schedule: Q04DX002 (ip), vehicle: Klucel (hydroxypropylcellulose) (HPC) 87 % of control | [10] 87 % of control | [11] 91 % of control

CC/C=C/C1(C(C)C)C(=O)NC(=O)NC1=O (tested in a mixture with another compound)
inactive: [12] 100 % of control | [13] 94 % of control | [14] 94 % of control

CC1CC(C)(C)N=C(CCCO)O1 (stereo not given)
inactive: dose: 50.0 mg/kg/injection, schedule: Q04DX002 (ip), vehicle: saline with Tween-80 104 % of control | [7] 96 % of control | [8] 104 % of control | [9] 100 % of control

c1cc2c3c(c1)-c1nc4ccccc4cc1CN3CCC2
inactive: dose: 100.0 mg/kg/injection, schedule: Q01DX009 (ip), vehicle: saline with Tween-80 94 % of control | dose: 200.0 mg/kg/injection, schedule: Q01DX009 (ip), vehicle: saline with Tween-80 105 % of control | dose: 400.0 mg/kg/injection, schedule: Q01DX009 (ip), vehicle: saline with Tween-80 96 % of control

N#Cc1ccccc1N=NNc1ccc([N+](=O)[O-])cc1
inactive: [12] 108 % of control | [13] 104 % of control | [14] 98 % of control

COc1ccc(-c2nnc(-c3ccc(OC)cc3)nn2)cc1
inactive: [10] 103 % of control | [11] 87 % of control | dose: 400.0 mg/kg/injection, schedule: Q04DX002 (ip), vehicle: Klucel (hydroxypropylcellulose) (HPC) 87 % of control

O=C1OC(=O)C2C1C1C3C=CC3C1C21C=C1 (stereo not given)
inactive: dose: 100.0 mg/kg/injection, schedule: Q01DX009 (ip), vehicle: other 100 % of control | [15] 96 % of control | dose: 200.0 mg/kg/injection, schedule: Q01DX009 (ip), vehicle: other 109 % of control | [16] 93 % of control | dose: 400.0 mg/kg/injection, schedule: Q01DX009 (ip), vehicle: other 110 % of control | [17] 100 % of control

N#Cc1ccccc1CC(O)(c1ccccc1)c1ccccc1
inactive: dose: 50.0 mg/kg/injection, schedule: Q01DX001 (ip), vehicle: saline 96 % of control | dose: 100.0 mg/kg/injection, schedule: Q01DX001 (ip), vehicle: saline 102 % of control | dose: 200.0 mg/kg/injection, schedule: Q01DX001 (ip), vehicle: saline 93 % of control | dose: 400.0 mg/kg/injection, schedule: Q01DX001 (ip), vehicle: saline 91 % of control

CCNCC
inactive: [15] 93 % of control | [16] 101 % of control | [17] 101 % of control
